Counter-ions that a name gives are not always drawn.

Broadly, the IC50 is the point on the concentration scale where inhibition reaches its midpoint.

The target in the test is T1, acid ceramidase (hACR) (Homo sapiens, UniProt Q13510).
T1 construct: expressed in transfected cells; cell lysate used
T1 sequence (Q13510 143-395 limits assumed): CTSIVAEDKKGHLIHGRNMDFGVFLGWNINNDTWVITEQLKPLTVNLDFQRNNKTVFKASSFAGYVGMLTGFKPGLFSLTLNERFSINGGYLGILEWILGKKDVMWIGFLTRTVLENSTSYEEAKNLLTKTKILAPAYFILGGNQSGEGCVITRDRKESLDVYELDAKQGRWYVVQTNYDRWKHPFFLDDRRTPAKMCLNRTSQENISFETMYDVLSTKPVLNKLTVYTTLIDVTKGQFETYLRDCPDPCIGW
T1 sequence (Q13510 22-142 limits assumed): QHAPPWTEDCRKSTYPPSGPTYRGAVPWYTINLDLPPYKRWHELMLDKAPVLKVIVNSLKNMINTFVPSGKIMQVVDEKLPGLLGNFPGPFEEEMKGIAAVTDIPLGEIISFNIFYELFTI
The test can be described thus: Acid ceramidase inhibition, biochemical fluorescent assay with cell lysates overexpressing acid ceramidase, substrate Rbm14-12. To be noted: cell lysates overexpressing acid ceramidase; 1 hr preincubation at RT; pH 4.5; substrate Rbm14-12 6.3 μM; read-out: hACR IC50. The procedure:
The ability of exemplary compounds to inhibit acid ceramidase was measured.
Cell lysates overexpressing acid ceramidase were used as the enzyme source for compound potency determination in a biochemical fluorescent assay. Briefly, compounds were preincubated with 10 µg protein of cell lysates in a dose-response manner for 1 hr at RT in the assay buffer containing 25 mM NaAC and 100 mM NaCl, pH 4.5. The reaction was initiated by the addition of substrate Rbm14-12 at a final concentration of 6.3 μM. The reaction was run at RT for 1 hr before it was stopped by the addition of the stopping buffer containing 20% methanol (v/v), 1 mg/ml NaIO4, 0.1 M glycine, pH 10.6. The samples were incubated with the stopping buffer at RT for 1 hr to allow the fluorescent product to be formed. Finally the plate was read with SpectraMax i3 plate reader (Molecular Devices) at ex360 nm and em446 nm. Data were collected and used to determine the IC50 values of compounds by curve fitting to the four-parameter inhibition equation.
The symbol “A” indicates inhibition of less than 0.2 μM; the symbol “B” indicates inhibition in the range of 0.2 μM up to 1 μM; and the symbol “C” indicates inhibition of greater than 1 μM.
For `C[C@@H]1CN(C(=O)NCCCCc2ccccc2)[C@@H](C)CN1C1CC1` [Example 113, (2S,5R)-4-Cyclopropyl-2,5-dimethyl-N-(4-phenylbutyl)piperazine-1-carboxamide], the IC50 lay in the range of 200 to 1000 nM.
For `CCCCCNC(=O)N1C(c2ccc(F)c(F)c2)COCC1(C)C` (centres unmarked) [Example 162, 5-(3,4-Difluorophenyl)-3,3-dimethyl-N-pentylmorpholine-4-carboxamide], the IC50 is less than 200 nM.
Regarding `CC(C)CNC(=O)N1C(c2ccc(F)cc2)COCC1(C)C` (centres unmarked) [Example 140, 5-(4-Fluorophenyl)-N-isobutyl-3,3-dimethylmorpholine-4-carboxamide], the IC50 is less than 200 nM.
Consider `CC1(C)CC(=O)C(c2ccccc2)CN1C(=O)NCCCCc1ccccc1` (centres unmarked) [Example 123, 2,2-Dimethyl-4-oxo5-phenyl-N-(4-phenylbutyl)piperidine-1-carboxamide], for which the IC50 was greater than 1000 nM.
`CC1(C)CC(N2CCCCC2)/C(=C/c2ccccc2)CN1C(=O)NCCc1ccccc1` (centres unmarked) [Example 129, (5E)-5-Benzylidene-2,2-dimethyl-N-(2-phenylethyl)-4-(1-piperidyl)piperidine-1-carboxamide]: the IC50 lay within 200 to 1000 nM.
As for `CC1(C)CC(=O)/C(=C/c2ccccc2)CN1C(=O)NCCCCc1ccccc1` [Example 122, (5E)-5-Benzylidene-2,2-dimethyl-4-oxo-N-(4-phenylbutyl)piperidine-1-carboxamide], the IC50 was less than 200 nM.
With `CCCCCCCNC(=O)N1CCC(N2CCCCC2)CC1(C)C` (centres unmarked) [Example 85, N-Heptyl-2,2-dimethyl-4-(1-piperidyl)piperidine-1-carboxamide] the figure was greater than 1000 nM; with `CCCCCNC(=O)N1CCC(c2ccccc2)CC1(C)C` (centres unmarked) [Example 76, 2,2-Dimethyl-N-pentyl-4-phenylpiperidine-1-carboxamide], greater than 1000 nM.
On to `CCCCCNC(=O)N1CCC(N2CCCCC2)C[C@@H]1C` (mixture of isomers) [Example 97, (2S)-Methyl-N-pentyl-4-(1-piperidyl)piperidine-1-carboxamide], for which the IC50 lay within 200 to 1000 nM.
With `CC[C@H](C)NC(=O)N1C(c2ccc(OC)cc2)COCC1(C)C` (mixture of isomers) [Example 155, (5R) AND (5S)-5-(4-Methoxyphenyl)-3,3-dimethyl-N-[(1S)-1-methylpropyl]morpholine-4-carboxamide] the figure was less than 200 nM; with `CCCCCNC(=O)N1C(c2ccc(OC)cc2F)COCC1(C)C` (centres unmarked) [Example 160, 5-(2-Fluoro-4-methoxyphenyl)-3,3-dimethyl-N-pentylmorpholine-4-carboxamide], less than 200 nM.
With `CC1(C)CN(C2CCCCC2)CCN1C(=O)NCCCCc1ccccc1` [Example 110, 4-Cyclohexyl-2,2-dimethyl-N-(4-phenylbutyl)piperazine-1-carboxamide] the figure was less than 200 nM; with `CC1C(N2CCCCC2)CCCN1C(=O)NCCCCc1ccccc1` (centres unmarked) [Example 101, 2-Methyl-N-(4-phenylbutyl)-3-(1-piperidyl)piperidine-1-carboxamide], 200 to 1000 nM; with `CCCCCNC(=O)N1CCN(C2CC2)CC1(C)C` [Example 112, 4-Cyclopropyl-2,2-dimethyl-N-pentylpiperazine-1-carboxamide], less than 200 nM.
With `CCCCCNC(=O)N1[C@@H](C)COC[C@H]1c1ccc(F)cc1` [Example 141, (3R,5S)-3-(4-Fluorophenyl)-5-methyl-N-pentylmorpholine-4-carboxamide] the figure was 200 to 1000 nM.
For the compound `CCCCCNC(=O)N1C(C)CC(N2CCCCC2)CC1C` (centres unmarked) [Example 98, 2,6-Dimethyl-N-pentyl-4-(1-piperidyl)piperidine-1-carboxamide hydrochloride], the IC50 is less than 200 nM.
For the compound `CC1C(c2ccccc2)CCCN1C(=O)NCCCCc1ccccc1` (mixture of isomers) [Example 81, 2-Methyl-3-phenyl-N-(4-phenylbutyl)piperidine-1-carboxamide], the IC50 was in the range of 200 to 1000 nM.

The values are drawn from patent US20220380314A1, “SUBSTITUTED, SATURATED AND UNSATURATED N-HETEROCYCLIC CARBOXAMIDES AND RELATED COMPOUNDS FOR THEIR USE IN THE TREATMENT OF MEDICAL DISORDERS” (Bial - R&D Investments, S.A., priority 2019, published 2022).
